Test results as given in patent US20250101039A1, “RIFAMYCIN DERIVATIVES FOR THE TREATMENT OF DISEASES” (priority 2022, published 2025).
Converted amounts (≈) assume the structure as drawn. “And” between values parts separate entries of the source, which are not always exact repeats. Identical values can stand only once. Like-named read-outs stand apart in the source and are kept apart here.

Tests used:
A. baumannii RpoB L542F = assay: microbe, parasite or virus in culture; assay type: cell-based, Acinetobacter baumannii; conditions: for MIC: Acinetobacter baumannii, RPOBL542F
S. aureus = assay: MIC by broth microdilution, S. aureus; assay type: cell-based, Staphylococcus aureus; conditions: cation adjusted Mueller Hinton broth, 35° C. 20 hours
A. baumannii = assay: MIC by broth microdilution, A. baumannii (WT); assay type: cell-based, Acinetobacter baumannii; conditions: for MIC A. baumannii: RPMI medium supplemented with 10% FCS, 35° C. 20 hours; for A. baumannii MIC, WT: Table 4, RPMI + FCS
A. baumannii RpoB S583L = assay: microbe, parasite or virus in culture; assay type: cell-based, Acinetobacter baumannii
[1] = tested on: S. pneumoniae (strain ATCC 49619); assay: MIC by broth microdilution, S. pneumoniae; assay type: cell-based, Streptococcus pneumoniae; conditions: strain ATCC 49619, cation adjusted Mueller Hinton broth + 5% laked horse blood
A. baumannii RpoB H535L = assay: microbe, parasite or virus in culture; assay type: cell-based, Acinetobacter baumannii; conditions: for MIC: Acinetobacter baumannii, RPOBH535L
[2] = tested on: M. smegmatis (strain ATCC 700084); assay: MIC, M. smegmatis (BacTiter-Glo); assay type: cell-based, Mycobacterium smegmatis; conditions: strain ATCC 700084, Middlebrook 7H9 + ADC, 90% growth inhibition, 20 hours
[3] = tested on: Enterococcus faecium (strain NCTC 12204); assay: MIC by broth microdilution, E. faecium; assay type: cell-based; conditions: strain NCTC 12204, cation adjusted Mueller Hinton broth
A. baumannii RpoB H535C = assay: microbe, parasite or virus in culture; assay type: cell-based, Acinetobacter baumannii; conditions: for MIC: Acinetobacter baumannii, RPOBH535C
[4] = tested on: Enterococcus faecalis (strain ATCC 51575); assay: MIC by broth microdilution, E. faecalis; assay type: cell-based; conditions: strain ATCC 51575, cation adjusted Mueller Hinton broth
A. baumannii RpoB H535Q = assay: microbe, parasite or virus in culture; assay type: cell-based, Acinetobacter baumannii; conditions: for MIC: Acinetobacter baumannii, RPOBH535Q
A. baumannii RpoB I581M = assay: microbe, parasite or virus in culture; assay type: cell-based, Acinetobacter baumannii
[5] = tested on: M. abscessus (strain ATCC 19977); assay: MIC by broth microdilution, M. abscessus; assay type: cell-based, Mycobacterium abscessus; conditions: strain ATCC 19977, Middlebrook 7H9 broth + ADC
[6] = tested on: Staphylococcus epidermidis (strain ATCC 12228); assay: MIC by broth microdilution, S. epidermidis; assay type: cell-based; conditions: strain ATCC 12228, cation adjusted Mueller Hinton broth
[7] = tested on: S. pyogenes (strain IHMA 1117021); assay: MIC by broth microdilution, S. pyogenes; assay type: cell-based, Streptococcus pyogenes; conditions: strain IHMA 1117021, cation adjusted Mueller Hinton broth + 5% laked horse blood
[8] = tested on: H. influenzae (strain ATCC 49247); assay: MIC by broth microdilution, H. influenzae; assay type: cell-based, Hemophilus influenzae; conditions: strain ATCC 49247, Hemophilus test medium broth
[9] = tested on: A. baumannii RpoB H535Q/S521T; assay: microbe, parasite or virus in culture; assay type: cell-based, Acinetobacter baumannii
A. baumannii RpoB N527D = assay: microbe, parasite or virus in culture; assay type: cell-based, Acinetobacter baumannii
[10] = tested on: M. tuberculosis (H37Rv strain ATCC 27294); assay type: cell-based, Mycobacterium tuberculosis

CO[C@H]1/C=C/O[C@@]2(C)Oc3c(C)c(O)c4c(c3C2=O)C2=NC3(CC5CCC(C3)N5)NC2=C(NC(=O)/C(C)=C\C=C\[C@H](C)[C@H](O)[C@@H](C)[C@@H](O)[C@@H](C)[C@H](OC(C)=O)[C@@H]1C)C4=O (single isomer, unassigned) [Compound 12B]
MIC, RpoB mutation L542F (A. baumannii RpoB L542F): 0.002 µg/mL (≈ 0.00245 µM) | MIC S. aureus (S. aureus): 0.016 µg/mL (≈ 0.0196 µM) | MIC A. baumannii (A. baumannii): < 0.002 µg/mL | A. baumannii MIC, WT (A. baumannii): ≤0.002 µg/mL | MIC, RpoB mutation S583L (A. baumannii RpoB S583L; Table 5 part 3 c4, clinical isolate, RPMI + 10% FCS): 0.004 µg/mL | MIC S. pneumoniae [1]: < 0.002 µg/mL | A. baumannii MIC, RpoB H535L (A. baumannii RpoB H535L; Table 4, RPMI + FCS): 0.03 µg/mL | MIC M. smegmatis [2]: 0.32 µg/mL | MIC E. faecium [3]: 0.03 µg/mL (≈ 0.0367 µM) | A. baumannii MIC, RpoB H535C (A. baumannii RpoB H535C; Table 4, RPMI + FCS): ≤0.002 µg/mL | MIC E. faecalis [4]: 0.125 µg/mL (≈ 0.153 µM) | A. baumannii MIC, RpoB H535Q (A. baumannii RpoB H535Q; Table 4, RPMI + FCS): ≤0.002 µg/mL | MIC, RpoB mutation I581M (A. baumannii RpoB I581M; Table 5 part 1 c1, clinical isolate, RPMI + 10% FCS): 0.004 µg/mL | MIC M. abscessus [5]: 8 µg/mL | MIC S. epidermidis [6]: < 0.002 µg/mL | MIC S. pyogenes [7]: < 0.002 µg/mL | MIC H. influenzae [8]: 0.06 µg/mL (≈ 0.0734 µM) | MIC, RpoB mutation H535Q/S521T [9]: 0.5 µg/mL and 1 µg/mL | MIC, RpoB mutation N527D (A. baumannii RpoB N527D; Table 5 part 3 c5, clinical isolate, RPMI + 10% FCS): ≤0.002 µg/mL | MIC M. tuberculosis [10]: 0.01 µg/mL (≈ 0.0122 µM)

CO[C@H]1/C=C/O[C@@]2(C)Oc3c(C)c(O)c4c(c3C2=O)C2=NC3(NC2=C(NC(=O)/C(C)=C\C=C\[C@H](C)[C@H](O)[C@@H](C)[C@@H](O)[C@@H](C)[C@H](OC(C)=O)[C@@H]1C)C4=O)C1CC2CC3CN(C2)C1 (some centres unmarked) [Compound 3B]
MIC A. baumannii (A. baumannii): < 0.002 µg/mL | A. baumannii MIC, WT (A. baumannii): ≤0.002 µg/mL | MIC, RpoB mutation S583L (A. baumannii RpoB S583L): ≤0.002 µg/mL | MIC S. pneumoniae [1]: < 0.002 µg/mL | A. baumannii MIC, RpoB H535L (A. baumannii RpoB H535L): 0.016 µg/mL | MIC M. smegmatis [2]: 0.65 µg/mL | MIC E. faecium [3]: 0.03 µg/mL (≈ 0.0356 µM) | A. baumannii MIC, RpoB H535C (A. baumannii RpoB H535C): ≤0.002 µg/mL | MIC E. faecalis [4]: 0.5 µg/mL (≈ 0.593 µM) | A. baumannii MIC, RpoB H535Q (A. baumannii RpoB H535Q): ≤0.002 µg/mL | MIC, RpoB mutation I581M (A. baumannii RpoB I581M): ≤0.002 µg/mL | MIC M. abscessus [5]: 8 µg/mL | MIC S. epidermidis [6]: < 0.002 µg/mL | MIC S. pyogenes [7]: < 0.002 µg/mL | MIC H. influenzae [8]: 0.125 µg/mL (≈ 0.148 µM) | MIC, RpoB mutation H535Q/S521T [9]: 1 µg/mL and 0.5 µg/mL | MIC, RpoB mutation N527D (A. baumannii RpoB N527D): ≤0.002 µg/mL | MIC M. tuberculosis [10]: 0.01 µg/mL (≈ 0.0119 µM)

CO[C@H]1/C=C/O[C@@]2(C)Oc3c(C)c(O)c4c(O)c(c(/C=N/N5CCN(C)CC5)c(O)c4c3C2=O)NC(=O)/C(C)=C\C=C\[C@H](C)[C@H](O)[C@@H](C)[C@@H](O)[C@@H](C)[C@H](OC(C)=O)[C@@H]1C [Rifampicin, reference compound]
MIC (A. baumannii RpoB L542F; read-out: MIC, RpoB mutation L542F, Table 5 part 3 c2, 1st L542F isolate, cation-adjusted Mueller Hinton broth (rifampicin)): 8 µg/mL (≈ 9.72 µM) | MIC (A. baumannii RpoB L542F; read-out: MIC, RpoB mutation L542F, Table 5 part 3 c3, 2nd L542F isolate, cation-adjusted Mueller Hinton broth (rifampicin)): 8 µg/mL (≈ 9.72 µM) | MIC (A. baumannii; Acinetobacter baumannii, Table 4, cation-adjusted Mueller Hinton broth (rifampicin), read-out: A. baumannii MIC, WT): 8 µg/mL (≈ 9.72 µM) | MIC (A. baumannii RpoB S583L; Acinetobacter baumannii, RPOBS583L, read-out: MIC, RpoB mutation S583L): > 32 µg/mL | MIC (A. baumannii RpoB H535L; read-out: A. baumannii MIC, RpoB H535L, Table 4, cation-adjusted Mueller Hinton broth (rifampicin)): > 32 µg/mL | MIC (A. baumannii RpoB H535L; read-out: MIC, RpoB mutation H535L, Table 5 part 2 c5, 1st H535L isolate, cation-adjusted Mueller Hinton broth (rifampicin)): > 32 µg/mL | MIC (A. baumannii RpoB H535L; read-out: MIC, RpoB mutation H535L, Table 5 part 2 c6, 2nd H535L isolate, cation-adjusted Mueller Hinton broth (rifampicin)): > 32 µg/mL | MIC (A. baumannii RpoB H535L; read-out: MIC, RpoB mutation H535L, Table 5 part 3 c1, 3rd H535L isolate, cation-adjusted Mueller Hinton broth (rifampicin)): > 32 µg/mL | MIC (A. baumannii RpoB H535L; read-out: MIC, RpoB mutation H535L, Table 5 part 3 c6, 4th H535L isolate, cation-adjusted Mueller Hinton broth (rifampicin)): > 32 µg/mL | MIC (A. baumannii RpoB H535L; read-out: MIC, RpoB mutation H535L, Table 5 part 3 c7, 5th H535L isolate, cation-adjusted Mueller Hinton broth (rifampicin)): > 32 µg/mL | MIC ([3]; Enterococcus faecium, NCTC12204, read-out: MIC E. faecium): 500 µg/mL (≈ 608 µM) | MIC (A. baumannii RpoB H535C; read-out: A. baumannii MIC, RpoB H535C, Table 4, cation-adjusted Mueller Hinton broth (rifampicin)): > 32 µg/mL | MIC (A. baumannii RpoB H535C; read-out: MIC, RpoB mutation H535C, Table 5 part 2 c2, 2nd H535C isolate, cation-adjusted Mueller Hinton broth (rifampicin)): > 32 µg/mL | MIC (A. baumannii RpoB H535C; read-out: MIC, RpoB mutation H535C, Table 5 part 2 c3, 3rd H535C isolate, cation-adjusted Mueller Hinton broth (rifampicin)): > 32 µg/mL | MIC (A. baumannii RpoB H535C; read-out: MIC, RpoB mutation H535C, Table 5 part 2 c4, 4th H535C isolate, cation-adjusted Mueller Hinton broth (rifampicin)): > 32 µg/mL | MIC ([4]; Enterococcus faecalis, ATCC51575, read-out: MIC E. faecalis): 1000 µg/mL (≈ 1220 µM) | MIC (A. baumannii RpoB H535Q; read-out: A. baumannii MIC, RpoB H535Q, Table 4, cation-adjusted Mueller Hinton broth (rifampicin)): > 32 µg/mL | MIC (A. baumannii RpoB H535Q; read-out: MIC, RpoB mutation H535Q, Table 5 part 1 c2, 1st H535Q isolate, cation-adjusted Mueller Hinton broth (rifampicin)): > 32 µg/mL | MIC (A. baumannii RpoB H535Q; read-out: MIC, RpoB mutation H535Q, Table 5 part 1 c3, 2nd H535Q isolate, cation-adjusted Mueller Hinton broth (rifampicin)): > 32 µg/mL | MIC (A. baumannii RpoB H535Q; read-out: MIC, RpoB mutation H535Q, Table 5 part 1 c4, 3rd H535Q isolate, cation-adjusted Mueller Hinton broth (rifampicin)): > 32 µg/mL | MIC (A. baumannii RpoB I581M; Acinetobacter baumannii, RPOBI581M, read-out: MIC, RpoB mutation I581M): > 32 µg/mL | MIC ([6]; Staphylococcus epidermidis, ATCC12228, read-out: MIC S. epidermidis): ≤ 2 µg/mL | MIC ([8]; Haemophilus influenzae, ATCC49247, read-out: MIC H. influenzae): 250 µg/mL (≈ 304 µM) | MIC (A. baumannii RpoB N527D; Acinetobacter baumannii, RPOBN527D, read-out: MIC, RpoB mutation N527D): > 32 µg/mL
